Assay results as given in US8106055B2, “Substituted amide compounds” (Gruenenthal GmbH, priority 2007, dated 2012).

What follows are compounds tested against T1, human μ opiate receptor (Homo sapiens, UniProt P35372) (assay: Affinity for the human μ opiate receptor ([3H]-naloxone displacement, CHO-K1 receptor membrane preparation, SPA)). Conditions: test concentration of 1 μM; read-out: μ (binding on the μ opioid receptor, % inhibition).
T1 construct: purchased PerkinElmer Life Sciences, Zaventem, Belgium RB-HOM; host or cells: CHO-K1 cells (membrane preparation)
T1 sequence (P35372 whole entry): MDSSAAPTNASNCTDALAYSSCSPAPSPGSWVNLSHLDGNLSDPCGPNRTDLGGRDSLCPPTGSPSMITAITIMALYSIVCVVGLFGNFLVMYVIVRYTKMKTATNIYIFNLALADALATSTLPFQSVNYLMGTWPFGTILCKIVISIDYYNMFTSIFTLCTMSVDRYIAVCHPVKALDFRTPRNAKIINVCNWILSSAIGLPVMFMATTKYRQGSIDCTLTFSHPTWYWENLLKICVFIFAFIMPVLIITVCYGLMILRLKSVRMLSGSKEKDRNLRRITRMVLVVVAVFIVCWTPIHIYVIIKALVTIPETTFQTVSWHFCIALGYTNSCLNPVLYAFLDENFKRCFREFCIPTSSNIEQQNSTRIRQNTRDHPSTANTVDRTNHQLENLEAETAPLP
Format: binding
Procedure, shortened: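 Scintillation proximity binding on human μ receptor membranes from CHO-K1 cells used 1 nmol/l [3H]-naloxone over 90 min at room temperature in 50 mmol/l Tris-HCl, 0.06% BSA. Percent inhibition was recorded at 1 μM.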

Question: How did the inhibition at 1 µM turn out when `CN(C)C(c1cccs1)C1CCC(CCNC(=O)COC2CCN(S(=O)(=O)c3ccc(Cl)cc3)C2)CC1` (centres unmarked) [Example 66, 2-(1-(4-chlorophenylsulfonyl)pyrrolidin-3-yloxy)-N-(2-(4-((dimethylamino)(thiophen-2-yl)methyl)cyclohexyl)ethyl)acetamide] was run?
Answer: 93%

Question: Which inhibition at 1 µM does the source give for `COc1cc(C)c(S(=O)(=O)N(C)CCOCC(=O)NCCC2CCC(C(c3cccs3)N(C)C)CC2)c(C)c1` (centres unmarked) [Example 84, N-(2-(4-((dimethylamino)(thiophen-2-yl)methyl)cyclohexyl)ethyl)-2-(2-(4-methoxy-N,2,6-trimethylphenylsulfonamido)ethoxy)acetamide] here?
Answer: 95%

Question: For `COc1cc(C)c(S(=O)(=O)N2CCN(CCOCC(=O)NC3CCC(C(c4cccc(F)c4)N(C)C)CC3)CC2)c(C)c1C` (centres unmarked) [Example 76, N-(4-((dimethylamino)(3-fluorophenyl)methyl)cyclohexyl)-2-(2-(4-(4-methoxy-2,3,6-trimethylphenylsulfonyl)piperazin-1-yl)ethoxy)acetamide], which inhibition at 1 µM is on record?
Answer: 93%

Question: With `CN(C)C(c1cccs1)C1CCC(CNC(=O)COCCN(C)S(=O)(=O)c2ccc(F)cc2)CC1` (centres unmarked) [Example 56, N-((4-((dimethylamino)(thiophen-2-yl)methyl)cyclohexyl)methyl)-2-(2-(4-fluoro-N-methylphenylsulfonamido)ethoxy)acetamide] as the compound, how does the inhibition at 1 µM read?
Answer: 95%

Question: How did the inhibition at 1 µM turn out when `COc1cc(C)c(S(=O)(=O)N2CCC(OCC(=O)NC3CCC(C(c4cccs4)N(C)C)CC3)CC2)c(C)c1C` (centres unmarked) [Example 1, N-(4-((dimethylamino)(thiophen-2-yl)methyl)cyclohexyl)-2-(1-(4-methoxy-2,3,6-trimethylphenylsulfonyl)piperidin-4-yloxy)acetamide] was run?
Answer: 100%

Question: For `COc1cc(C)c(S(=O)(=O)N2CCN(CCOCC(=O)NCC3CCC(C(c4ccccc4)N(C)C)CC3)CC2)c(C)c1C` (centres unmarked) [Example 61, N-((4-((dimethylamino)(phenyl)methyl)cyclohexyl)methyl)-2-(2-(4-(4-methoxy-2,3,6-trimethylphenylsulfonyl)piperazin-1-yl)ethoxy)acetamide], which inhibition at 1 µM is on record?
Answer: 95%

Question: Which inhibition at 1 µM does the source give for `Cc1cc(C)c(S(=O)(=O)N(C)CCOCC(=O)NCC2CCC(C(c3cccs3)N(C)C)CC2)c(C)c1` (centres unmarked) [Example 57, N-((4-((dimethylamino)(thiophen-2-yl)methyl)cyclohexyl)methyl)-2-(2-(N,2,4,6-tetramethylphenylsulfonamido)ethoxy)acetamide] here?
Answer: 95%

Question: With `CN(C)C(c1cccs1)C1CCC(NC(=O)COC2CCCN(S(=O)(=O)c3ccccc3)C2)CC1` (centres unmarked) [Example 42, N-(4-((dimethylamino)(thiophen-2-yl)methyl)cyclohexyl)-2-(1-(phenylsulfonyl)piperidin-3-yloxy)acetamide] as the compound, how does the inhibition at 1 µM read?
Answer: 96%

Question: For `COc1cc(C)c(S(=O)(=O)N2CCC(OCC(=O)NCC3CCC(C(c4cccs4)N(C)C)CC3)C2)c(C)c1` (centres unmarked) [Example 86, N-((4-((dimethylamino)(thiophen-2-yl)methyl)cyclohexyl)methyl)-2-(1-(4-methoxy-2,6-dimethylphenylsulfonyl)pyrrolidin-3-yloxy)acetamide], which inhibition at 1 µM is on record?
Answer: 95%

Question: `COc1ccc(S(=O)(=O)N(C)CCOCC(=O)NC2CCC(C(c3cccs3)N(C)C)CC2)cc1` (centres unmarked) [Example 73, N-(4-((dimethylamino)(thiophen-2-yl)methyl)cyclohexyl)-2-(2-(4-methoxy-N-methylphenylsulfonamido)ethoxy)acetamide] was tested. Which inhibition at 1 µM did it give?
Answer: 90%

Question: How did the inhibition at 1 µM turn out when `COc1ccc(S(=O)(=O)N2Cc3ccccc3CC2COCC(=O)NC2CCC(C(c3ccccc3)N(C)C)CC2)cc1` (centres unmarked) [Example 38, N-(4-((dimethylamino)(phenyl)methyl)cyclohexyl)-2-((2-(4-methoxyphenylsulfonyl)-1,2,3,4-tetrahydroisoquinolin-3-yl)methoxy)acetamide] was run?
Answer: 96%

Question: For `CN(C)C(c1cccs1)C1CCC(NC(=O)COCCN(C)S(=O)(=O)c2ccc(Cl)cc2)CC1` (centres unmarked) [Example 83, 2-(2-(4-chloro-N-methylphenylsulfonamido)ethoxy)-N-(4-((dimethylamino) (thiophen-2-yl)methyl)cyclohexyl)acetamide], which inhibition at 1 µM is on record?
Answer: 94%

Question: `COc1cc(C)c(S(=O)(=O)N2CCC(CCOCC(=O)NCCC3CCC(C(c4cccs4)N(C)C)CC3)CC2)c(C)c1C` (centres unmarked) [Example 75, N-(2-(4-((dimethylamino)(thiophen-2-yl)methyl)cyclohexyl)ethyl)-2-(2-(1-(4-methoxy-2,3,6-trimethylphenylsulfonyl)piperidin-4-yl)ethoxy)acetamide] was tested. Which inhibition at 1 µM did it give?
Answer: 92%

Question: For `COc1ccc(S(=O)(=O)N2CCCCC2COCC(=O)NCC2CCC(C(c3ccccc3)N(C)C)CC2)cc1` (centres unmarked) [Example 88, N-((4-((dimethylamino)(phenyl)methyl)cyclohexyl)methyl)-2-((1-(4-methoxyphenylsulfonyl)piperidin-2-yl)methoxy)acetamide], which inhibition at 1 µM is on record?
Answer: 94%

Question: How did the inhibition at 1 µM turn out when `CN(C)C(c1ccccc1)C1CCC(CNC(=O)COCCN(C)S(=O)(=O)c2ccc(OC(F)(F)F)cc2)CC1` (centres unmarked) [Example 53, N-((4-((dimethylamino)(phenyl)methyl)cyclohexyl)methyl)-2-(2-(N-methyl-4-(trifluoromethoxy)phenylsulfonamido)ethoxy)acetamide] was run?
Answer: 95%

Question: For `COc1ccc(S(=O)(=O)N2CCCC2COCC(=O)NCCC2CCC(C(c3cccs3)N(C)C)CC2)cc1` (centres unmarked) [Example 77, N-(2-(4-((dimethylamino)(thiophen-2-yl)methyl)cyclohexyl)ethyl)-2-((1-(4-methoxyphenylsulfonyl)pyrrolidin-2-yl)methoxy)acetamide], which inhibition at 1 µM is on record?
Answer: 96%

Question: How did the inhibition at 1 µM turn out when `COc1ccc(S(=O)(=O)N2CCCCC2COCC(=O)NCC2CCC(C(c3cccs3)N(C)C)CC2)cc1` (centres unmarked) [Example 45, N-((4-((dimethylamino)(thiophen-2-yl)methyl)cyclohexyl)methyl)-2-((1-(4-methoxyphenylsulfonyl)piperidin-2-yl)methoxy)acetamide] was run?
Answer: 96%

Question: For `COc1cc(C)c(S(=O)(=O)N(C)CCOCC(=O)NCC2CCC(C(c3cccs3)N(C)C)CC2)c(C)c1` (centres unmarked) [Example 69, N-((4-((dimethylamino)(thiophen-2-yl)methyl)cyclohexyl)methyl)-2-(2-(4-methoxy-N,2,6-trimethylphenylsulfonamido)ethoxy)acetamide], which inhibition at 1 µM is on record?
Answer: 96%

Question: Which inhibition at 1 µM does the source give for `CCN(CCOCC(=O)NC1CCC(C(c2cccs2)N(C)C)CC1)S(=O)(=O)c1c(C)cc(OC)c(C)c1C` (centres unmarked) [Example 59, N-(4-((dimethylamino)(thiophen-2-yl)methyl)cyclohexyl)-2-(2-(N-ethyl-4-methoxy-2,3,6-trimethylphenylsulfonamido)ethoxy)acetamide] here?
Answer: 95%

Question: `Cc1cc(C)c(S(=O)(=O)N2CCC(OCC(=O)NC3CCC(C(c4ccccc4)N(C)C)CC3)C2)c(C)c1` (centres unmarked) [Example 64, N-(4-((dimethylamino)(phenyl)methyl)cyclohexyl)-2-(1-(mesitylsulfonyl)pyrrolidin-3-yloxy)acetamide] was tested. Which inhibition at 1 µM did it give?
Answer: 94%

Question: `Cc1ccc(S(=O)(=O)N(C)CCOCC(=O)NCCC2CCC(C(c3cccs3)N(C)C)CC2)cc1` (centres unmarked) [Example 82, N-(2-(4-((dimethylamino)(thiophen-2-yl)methyl)cyclohexyl)ethyl)-2-(2-(N,4-dimethylphenylsulfonamido)ethoxy)acetamide] was tested. Which inhibition at 1 µM did it give?
Answer: 95%

Question: With `CN(C)C(c1cccs1)C1CCC(CNC(=O)COC2CCN(S(=O)(=O)c3ccc(Cl)cc3)C2)CC1` (centres unmarked) [Example 54, 2-(1-(4-chlorophenylsulfonyl)pyrrolidin-3-yloxy)-N-((4-((dimethylamino)(thiophen-2-yl)methyl)cyclohexyl)methyl)acetamide] as the compound, how does the inhibition at 1 µM read?
Answer: 95%

Question: With `COc1cc(C)c(S(=O)(=O)N(C)CCOCC(=O)NC2CCC(C(c3ccccc3)N(C)C)CC2)c(C)c1C` (centres unmarked) [Example 80, N-(4-((dimethylamino) (phenyl)methyl)cyclohexyl)-2-(2-(4-methoxy-N,2,3,6-tetramethylphenylsulfonamido)ethoxy)acetamide] as the compound, how does the inhibition at 1 µM read?
Answer: 93%

Question: Which inhibition at 1 µM does the source give for `COc1ccc(S(=O)(=O)N2CCCCC2CCOCC(=O)NCC2CCC(C(c3cccs3)N(C)C)CC2)cc1` (centres unmarked) [Example 90, N-((4-((dimethylamino)(thiophen-2-yl)methyl)cyclohexyl)methyl)-2-(2-(1-(4-methoxyphenylsulfonyl)piperidin-2-yl)ethoxy)acetamide] here?
Answer: 95%

Question: For `COc1ccc(S(=O)(=O)N2Cc3ccccc3CC2COCC(=O)NC2CCC(C(c3cccs3)N(C)C)CC2)cc1` (centres unmarked) [Example 47, N-(4-((dimethylamino)(thiophen-2-yl)methyl)cyclohexyl)-2-((2-(4-methoxyphenylsulfonyl)-1,2,3,4-tetrahydroisoquinolin-3-yl)methoxy)acetamide], which inhibition at 1 µM is on record?
Answer: 96%

Question: With `CN(C)C(c1ccccc1)C1CCC(CNC(=O)COC2CCN(S(=O)(=O)c3ccc(Cl)cc3Cl)C2)CC1` (centres unmarked) [Example 67, 2-(1-(2,4-dichlorophenylsulfonyl)pyrrolidin-3-yloxy)-N-((4-((dimethylamino)(phenyl)methyl)cyclohexyl)methyl)acetamide] as the compound, how does the inhibition at 1 µM read?
Answer: 96%

Question: How did the inhibition at 1 µM turn out when `Cc1ccc(S(=O)(=O)N2CCC(OCC(=O)NCC3CCC(C(c4cccs4)N(C)C)CC3)C2)cc1` (centres unmarked) [Example 68, N-((4-((dimethylamino)(thiophen-2-yl)methyl)cyclohexyl)methyl)-2-(1-tosylpyrrolidin-3-yloxy)acetamide] was run?
Answer: 93%

Question: `COc1cc(C)c(S(=O)(=O)N2CCC(OCC(=O)NC3CCC(C(c4cccs4)N(C)C)CC3)C2)c(C)c1C` (centres unmarked) [Example 43, N-(4-((dimethylamino)(thiophen-2-yl)methyl)cyclohexyl)-2-(1-(4-methoxy-2,3,6-trimethylphenylsulfonyl)pyrrolidin-3-yloxy)acetamide] was tested. Which inhibition at 1 µM did it give?
Answer: 96%

Question: With `COc1ccc(S(=O)(=O)N2CCCCC2CCOCC(=O)NC2CCC(C(c3cccc(F)c3)N(C)C)CC2)cc1` (centres unmarked) [Example 62, N-(4-((dimethylamino)(3-fluorophenyl)methyl)cyclohexyl)-2-(2-(1-(4-methoxyphenylsulfonyl)piperidin-2-yl)ethoxy)acetamide] as the compound, how does the inhibition at 1 µM read?
Answer: 95%
